Earlier results, collected in patent US20090048110A1, “Orchid Culturing Method” (priority 2005, published 2009).

Tested on: Dendrobium
Conditions: application to the mature pseudobulbs, but not the developing ones

Q: For `c1ccc(CNc2ncnc3nc[nH]c23)cc1` [6-BAP, 6-benzylaminopurine], which triggering of spiking is on record?
A: The triggering of spiking was “shown to trigger spiking”.
